Experiments:
[1] = system: A549-ACE2 infected with SARS-CoV-2; assay: morphology score (similarity to uninfected cells); higher = more like uninfected cells; details: 24 h
[2] = system: A549-ACE2 infected with SARS-CoV-2; assay: SARS-CoV-2 infection rate relative to DMSO; higher = more infection; details: 24 h
[3] = system: A549-ACE2 infected with SARS-CoV-2; assay: cell count relative to DMSO; higher = less toxic; details: 24 h
U2OS [4] = assay: cell viability relative to DMSO; higher = less toxic; details: 72 h
Caco-2 [5] = assay: as above; details: 72 h
HepG2 [6] = assay: as above; details: 72 h
Calu-3 [7] = assay: as above; details: 72 h
Vero E6 [8] = assay: as above; details: 72 h
U2OS [9] = assay: drug sensitivity score (DSS) for viability; higher = more toxic; extreme values may be limits of the assay; details: 72 h
Caco-2 [10] = assay: as above; details: 72 h
HepG2 [11] = assay: as above; details: 72 h
Calu-3 [12] = assay: as above; details: 72 h
Vero E6 [13] = assay: as above; details: 72 h
A549-ACE2 [14] = assay: phospholipidosis EC50; higher = less potent phospholipidosis inducer
U2OS [15] = assay: relative viability EC50 (midpoint between 100% and the lowest measured viability); higher = less toxic; details: 72 h
Caco-2 [16] = assay: as above; details: 72 h
Calu-3 [17] = assay: as above; details: 72 h
Vero E6 [18] = assay: as above; details: 72 h
A549-ACE2 [19] = assay: drug-induced phospholipidosis relative to tamoxifen; higher = more phospholipidosis
HepG2 [20] = assay: relative viability EC50 (midpoint between 100% and the lowest measured viability); higher = less toxic; details: 72 h

C[C@@H]1CN(CC(=O)Nc2ccc3c(c2)Cc2cccc(-c4cc(=O)cc(N5CCOCC5)o4)c2S3)C[C@H](C)O1
Details	SARS-CoV-2 infection rate [%]	cell count [%]	cell viability [%]	morphology score	phospholipidosis EC50 [µM]
A549-ACE2 [14], 72 h	–	–	–	–	20
Caco-2 [5], 1 nM	–	–	97.2	–	–
Caco-2 [5], 10 nM	–	–	103	–	–
Caco-2 [5], 100 nM	–	–	101	–	–
Caco-2 [5], 1000 nM	–	–	103	–	–
Caco-2 [5], 10000 nM	–	–	47.3	–	–
Calu-3 [7], 1 nM	–	–	99.4	–	–
Calu-3 [7], 10 nM	–	–	104	–	–
Calu-3 [7], 100 nM	–	–	99.4	–	–
Calu-3 [7], 1000 nM	–	–	105	–	–
Calu-3 [7], 10000 nM	–	–	99.3	–	–
HepG2 [6], 1 nM	–	–	105	–	–
HepG2 [6], 10 nM	–	–	101	–	–
HepG2 [6], 100 nM	–	–	97.8	–	–
HepG2 [6], 1000 nM	–	–	96	–	–
HepG2 [6], 10000 nM	–	–	54.3	–	–
U2OS [4], 1 nM	–	–	102	–	–
U2OS [4], 10 nM	–	–	104	–	–
U2OS [4], 100 nM	–	–	95.7	–	–
U2OS [4], 1000 nM	–	–	98.7	–	–
U2OS [4], 10000 nM	–	–	89.6	–	–
Vero E6 [8], 1 nM	–	–	103	–	–
Vero E6 [8], 10 nM	–	–	99.2	–	–
Vero E6 [8], 100 nM	–	–	103	–	–
Vero E6 [8], 1000 nM	–	–	104	–	–
Vero E6 [8], 10000 nM	–	–	80.9	–	–
[1], 0.3 µM	–	–	–	0.15	–
[1], 3 µM	–	–	–	0.09	–
[1], 10 µM	–	–	–	0.57	–
[1], 30 µM	–	–	–	0.45	–
[2], 0.3 µM	108	–	–	–	–
[2], 3 µM	98	–	–	–	–
[2], 10 µM	62	–	–	–	–
[2], 30 µM	68	–	–	–	–
[3], 0.3 µM	–	115	–	–	–
[3], 3 µM	–	103	–	–	–
[3], 10 µM	–	113	–	–	–
[3], 30 µM	–	104	–	–	–

Details	drug sensitivity score	relative viability EC50 [µM]
Caco-2 [10]	2.5	–
Caco-2 [16]	–	3.48
Calu-3 [12]	0	–
Calu-3 [17]	–	> 10
HepG2 [11]	3	–
U2OS [9]	0	–
U2OS [15]	–	> 10
Vero E6 [13]	0.4	–
Vero E6 [18]	–	> 10

drug-induced phospholipidosis [%], A549-ACE2 [19]
Details	0.3 µM	0.833333 µM	3.33333 µM	6.66667 µM	10 µM	30 µM
24 h	-1.06	-2.12	-2.36	1.18	7.55	66.8
48 h	-1.36	-2.9	-1.74	0	6.05	52.4
72 h	-1.2	-4.15	-2.75	0.476	6.88	56.1

Cc1cc(CN)cc(C)c1NC(=O)c1ccc(-c2cc(Cl)ccc2Cl)o1
Details	SARS-CoV-2 infection rate [%]	cell count [%]	cell viability [%]	morphology score	phospholipidosis EC50 [µM]
A549-ACE2 [14], 24 h	–	–	–	–	2.39
A549-ACE2 [14], 48 h	–	–	–	–	3.42
A549-ACE2 [14], 72 h	–	–	–	–	4.24
Caco-2 [5], 1 nM	–	–	105	–	–
Caco-2 [5], 10 nM	–	–	101	–	–
Caco-2 [5], 100 nM	–	–	98.1	–	–
Caco-2 [5], 1000 nM	–	–	102	–	–
Caco-2 [5], 10000 nM	–	–	79.1	–	–
Calu-3 [7], 1 nM	–	–	104	–	–
Calu-3 [7], 10 nM	–	–	101	–	–
Calu-3 [7], 100 nM	–	–	104	–	–
Calu-3 [7], 1000 nM	–	–	102	–	–
Calu-3 [7], 10000 nM	–	–	60.1	–	–
HepG2 [6], 1 nM	–	–	106	–	–
HepG2 [6], 10 nM	–	–	103	–	–
HepG2 [6], 100 nM	–	–	97.8	–	–
HepG2 [6], 1000 nM	–	–	107	–	–
HepG2 [6], 10000 nM	–	–	66.7	–	–
U2OS [4], 1 nM	–	–	98	–	–
U2OS [4], 10 nM	–	–	102	–	–
U2OS [4], 100 nM	–	–	98.5	–	–
U2OS [4], 1000 nM	–	–	101	–	–
U2OS [4], 10000 nM	–	–	83.1	–	–
Vero E6 [8], 1 nM	–	–	103	–	–
Vero E6 [8], 10 nM	–	–	97.5	–	–
Vero E6 [8], 100 nM	–	–	105	–	–
Vero E6 [8], 1000 nM	–	–	96.6	–	–
Vero E6 [8], 10000 nM	–	–	96.8	–	–
[1], 0.3 µM	–	–	–	0.02	–
[1], 3 µM	–	–	–	0.84	–
[1], 10 µM	–	–	–	0.68	–
[1], 30 µM	–	–	–	-0.13	–
[2], 0.3 µM	101	–	–	–	–
[2], 3 µM	34	–	–	–	–
[2], 10 µM	10	–	–	–	–
[2], 30 µM	43	–	–	–	–
[3], 0.3 µM	–	101	–	–	–
[3], 3 µM	–	120	–	–	–
[3], 10 µM	–	120	–	–	–
[3], 30 µM	–	1	–	–	–

Details	drug sensitivity score	relative viability EC50 [µM]
Caco-2 [10]	0.6	–
Caco-2 [16]	–	> 10
Calu-3 [12]	1.8	–
HepG2 [11]	1.2	–
U2OS [9]	0.3	–
U2OS [15]	–	> 10
Vero E6 [13]	0	–
Vero E6 [18]	–	> 10

drug-induced phospholipidosis [%], A549-ACE2 [19]
Details	0.3 µM	0.833333 µM	3.33333 µM	6.66667 µM	10 µM
24 h	2.63	5.94	68	88.7	90.2
48 h	3.74	4.56	48.1	81.5	90.1
72 h	1.91	1.3	32.6	66.3	78.5

COC(=O)[C@]12CCC(C)(C)C[C@H]1[C@H]1C(=O)C=C3[C@@]4(C)C=C(C#N)C(=O)C(C)(C)[C@@H]4CC[C@@]3(C)[C@]1(C)CC2 [Bardoxolone Methyl]
Details	SARS-CoV-2 infection rate, [2] [%]	cell count, [3] [%]	cell viability, Caco-2 [5] [%]	cell viability, Calu-3 [7] [%]	cell viability, HepG2 [6] [%]	cell viability, U2OS [4] [%]	cell viability, Vero E6 [8] [%]	morphology score, [1]
1 nM	–	–	86.4	107	94.7	101	98.6	–
10 nM	–	–	88.7	124	107	96.7	107	–
100 nM	–	–	85.9	117	87.4	96.6	92.3	–
0.3 µM	98	97	–	–	–	–	–	0.09
1000 nM	–	–	14.1	12.8	4	0.1	5.5	–
3 µM	61	5	–	–	–	–	–	-0.03
10000 nM	–	–	-0.2	0	-0.2	-0.3	-0.3	–

Details	drug sensitivity score	relative viability EC50 [µM]
Caco-2 [10]	17.5	–
Caco-2 [16]	–	0.313
Calu-3 [12]	15.4	–
Calu-3 [17]	–	0.503
HepG2 [11]	19.4	–
HepG2 [20]	–	0.239
U2OS [9]	18.4	–
U2OS [15]	–	0.292
Vero E6 [13]	18.3	–
Vero E6 [18]	–	0.293

A549-ACE2 [19], 0.3 µM
Details	drug-induced phospholipidosis [%]
24 h	0.65
48 h	2.45
72 h	7

CC1(N2CCC(n3c([C@@H]4CCCNC4)nc4ccccc43)CC2)CCCCCCC1 [MCOPPB]
Details	SARS-CoV-2 infection rate [%]	cell count [%]	cell viability [%]	morphology score	phospholipidosis EC50 [µM]
A549-ACE2 [14], 24 h	–	–	–	–	1.64
A549-ACE2 [14], 48 h	–	–	–	–	3.3
A549-ACE2 [14], 72 h	–	–	–	–	4.88
Caco-2 [5], 1 nM	–	–	111	–	–
Caco-2 [5], 10 nM	–	–	105	–	–
Caco-2 [5], 100 nM	–	–	93.5	–	–
Caco-2 [5], 1000 nM	–	–	100	–	–
Caco-2 [5], 10000 nM	–	–	89.3	–	–
Calu-3 [7], 1 nM	–	–	99.2	–	–
Calu-3 [7], 10 nM	–	–	99.8	–	–
Calu-3 [7], 100 nM	–	–	91.6	–	–
Calu-3 [7], 1000 nM	–	–	99	–	–
Calu-3 [7], 10000 nM	–	–	7.3	–	–
HepG2 [6], 1 nM	–	–	94	–	–
HepG2 [6], 10 nM	–	–	100	–	–
HepG2 [6], 100 nM	–	–	99.5	–	–
HepG2 [6], 1000 nM	–	–	87.5	–	–
HepG2 [6], 10000 nM	–	–	55.1	–	–
U2OS [4], 1 nM	–	–	98.6	–	–
U2OS [4], 10 nM	–	–	104	–	–
U2OS [4], 100 nM	–	–	98.6	–	–
U2OS [4], 1000 nM	–	–	100	–	–
U2OS [4], 10000 nM	–	–	91.4	–	–
Vero E6 [8], 1 nM	–	–	101	–	–
Vero E6 [8], 10 nM	–	–	101	–	–
Vero E6 [8], 100 nM	–	–	106	–	–
Vero E6 [8], 1000 nM	–	–	99	–	–
Vero E6 [8], 10000 nM	–	–	98.9	–	–
[1], 0.3 µM	–	–	–	0.38	–
[1], 3 µM	–	–	–	0.73	–
[1], 10 µM	–	–	–	0.28	–
[1], 30 µM	–	–	–	-0.07	–
[2], 0.3 µM	89	–	–	–	–
[2], 3 µM	23	–	–	–	–
[2], 10 µM	16	–	–	–	–
[2], 30 µM	27	–	–	–	–
[3], 0.3 µM	–	106	–	–	–
[3], 3 µM	–	115	–	–	–
[3], 10 µM	–	119	–	–	–
[3], 30 µM	–	120	–	–	–

Details	drug sensitivity score	relative viability EC50 [µM]
Caco-2 [10]	0	–
Caco-2 [16]	–	> 10
Calu-3 [12]	5.3	–
Calu-3 [17]	–	3.09
HepG2 [11]	4.2	–
U2OS [9]	0	–
U2OS [15]	–	> 10
Vero E6 [13]	0	–
Vero E6 [18]	–	> 10

drug-induced phospholipidosis [%], A549-ACE2 [19]
Details	0.3 µM	0.833333 µM	3.33333 µM	6.66667 µM	10 µM	30 µM
24 h	5.09	34	89.2	113	138	112
48 h	5.47	17.9	70.6	117	145	111
72 h	4.22	12.1	45	98.9	137	141

Source: the supplement of paper PMC13380429
